Data published in PubChem BioAssay AID1576 (EPA DSSTox, 2009).
Calls of active or inactive are those of the source.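 Rule for the calls: active = chemicals shown by follow-up kinetic tests to compete for rat estrogen receptor sites, with a measured inhibition constant; inconclusive = some binding seen but constant unmeasurable owing to poor solubility; inactive = no binding up to top dose, or binding unconfirmed.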

The compounds below were run against Estrogen receptor (Rattus norvegicus) (UniProt P06211) (assay: DSSTox (KIERBL) EPA Estrogen Receptor Ki Binding Study (Laws et al.) Database). Settings: Rat uterine cytosol ER, 3H-estradiol competitive binding.
Method: This study was conducted by EPA researchers to evaluate the validity of the rat uterine cytosolic (RUC) estrogen receptor (ER) competitive binding assay for use in the Endocrine Disruption Screening Program (EDSP). The assay measures the ability of radiolabeled 17-beta-estradiol (3H-E2) to bind with RUC ER in the presence of increasing concentrations of a test chemical. The goal is to employ this in vitro assay as a 1st tier screening tool for assessing the potential of structurally diverse environmental chemicals to bind to the ER, as well as to support research efforts to develop computational models to predict ER binding. A distinguishing feature of the present study was the use of secondary experimental analysis of binding curves and determination of Ki values to confirm that measured IC50 values corresponded to true positive results. The study concluded that a number of experimental conditions can confound interpretation of IC50 values obtained from the RUC ER-binding assay data and lead to false positive results. In particular, some chemical treatments likely alter the stability of the assay by changing the buffer pH, denaturing ER, or disrupting the ER binding kinetics. […] The chemicals used in this study were selected as part of a validation test for two Quantitative Structure-Activity Relationship (QSAR) models designed to predict ER binding [Fed. Reg. 67(250), 79618, Dec. 30, 2002]. Several hundred chemicals were initially screened, including approximately 100 chemicals selected from among the High Production Volume (HPV) chemicals included in EPA's Toxic Substances Control Act (TSCA) inventory that were predicted to be positive for ER binding, with the rest selected at random from the TSCA inventory. All chemicals were initially tested in ER competitive binding assays by Battelle Pacific Northwest Laboratories, Richland, Washington [EPA Contract Number 68-W-99-033, Task 6]. Approximately 50 chemicals produced binding curves that: (1) strongly implied competitive inhibition of ER binding, or (2) produced partial curves or irregular (non-sigmoid) binding curves. These chemicals were further evaluated in an ER competitive binding assay with secondary analysis to confirm true competitive inhibition and to determine an experimental Ki [U.S. EPA Contract 3D-5967-NTEX]. The results of RUC ER screening for these 50 structurally diverse chemicals, for which secondary confirmatory analyses were performed, were published in the Main Citation (Laws et al., 2006, Tox. Sci. 94:46-56). The remaining 228 chemicals were designated as non-binders based on initial screening studies.
The DSSTox KIERBL data files include all published IC50 and Ki experimental results for the 50 chemicals included in the Main Citation (Laws et al., 2006) (denoted Group 1), as well as previously unpublished results for an additional 228 structually diverse TSCA chemicals for which no ER binding was observed (denoted Group 2. IC50 values were determined for 32 compounds in Group 1 as the concentration of a test chemical that inhibits the maximal specific binding of 0.33 nM radiolabeled (3H) 17-beta-estradiol (E2) to rat uterine cytosolic (RUC) estrogen receptor (ER) by 50%. Confirmation of binding status was accomplished by secondary analysis using Lineweaver-Burk plots and slope replots to determine true competitive inhibition and an experimental Ki value. Ki is the inhibition constant for the test chemical, i.e., the concentration of the test chemical that will bind to half the binding sites at equilibrium (displacing half of the probe-bound receptors), in the absence of radioligand or other competitors. Ki reported as Mean +/- Standard Error from n=2 experiments (see StandardError_Ki_n2) and is determined from Lineweaver-Burk plots over the tested dose range (TestedRange_microM). For more information see BindingCurve_Group and BindingCurve_Details. […]

Chain of Estrogen receptor (Rattus norvegicus) (P06211 whole entry, looked up): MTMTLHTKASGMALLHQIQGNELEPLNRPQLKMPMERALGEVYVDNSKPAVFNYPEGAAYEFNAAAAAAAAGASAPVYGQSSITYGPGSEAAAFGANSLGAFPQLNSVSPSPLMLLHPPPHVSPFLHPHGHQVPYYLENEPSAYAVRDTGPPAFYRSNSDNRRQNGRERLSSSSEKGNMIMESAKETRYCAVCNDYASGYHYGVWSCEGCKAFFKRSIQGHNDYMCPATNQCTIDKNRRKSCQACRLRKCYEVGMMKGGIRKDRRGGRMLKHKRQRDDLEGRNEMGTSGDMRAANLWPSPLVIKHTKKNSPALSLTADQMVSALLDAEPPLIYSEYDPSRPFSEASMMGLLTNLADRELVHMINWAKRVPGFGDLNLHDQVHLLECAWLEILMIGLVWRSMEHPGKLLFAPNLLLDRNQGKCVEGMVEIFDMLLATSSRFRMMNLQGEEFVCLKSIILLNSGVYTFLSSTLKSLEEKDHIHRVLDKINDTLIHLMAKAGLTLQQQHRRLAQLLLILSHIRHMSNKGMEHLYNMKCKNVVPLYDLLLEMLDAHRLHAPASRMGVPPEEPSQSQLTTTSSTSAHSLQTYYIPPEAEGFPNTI

Compound	outcome
OCCOc1ccc(OCCO)cc1	inactive; none
Cc1ccc(C(=O)c2ccccc2)cc1	inactive; incomplete
O=C(n1ccnc1)n1ccnc1	inactive; none
N#CCc1ccccc1	inactive; none
C=CC(=O)OCCOCCOC(=O)C=C	inactive; none
COc1ccccc1NC(=O)c1cc2ccccc2cc1O	inactive; none
CCCCCCCC[Si](Cl)(Cl)Cl	inactive; none
CN(C)c1ccc(C(=C2C=CC(=Nc3ccccc3)c3ccccc32)c2ccc(N(C)C)cc2)cc1	inactive; none
c1ccc(-c2ccccc2)cc1	inactive; none
C=CC(=O)OCCC(F)(F)C(F)(F)C(F)(F)C(F)(F)C(F)(F)C(F)(F)F	inactive; none
Cc1cccc[n+]1[O-]	inactive; none
COc1cc(Cl)c(OC)cc1Cl	inactive; none
OC1OCCOC1O (stereo not drawn)	inactive; none
C=CC(=O)OCC(C)O (stereo not drawn)	inactive; none
CC(C)CCC(C)Nc1ccc(NC(C)CCC(C)C)cc1 (stereo not drawn)	inactive; none
O=C(O)CCCCC(=O)O	inactive; none
O=C=NCc1cccc(CN=C=O)c1	inactive; none
C(=NC1CCCCC1)=NC1CCCCC1	inactive; none
c1ccsc1	inactive; none
CN(C)c1ccc(C(=C2C=CC(=[N+](C)C)C=C2)c2ccc(N(C)C)cc2)cc1	inactive; none
CCN=C1C=CC(=C(c2ccc(N(CC)CC)cc2)c2ccc(N(CC)CC)cc2)c2ccccc21	inactive; none
CCCCCOC(C)=O	inactive; none
C1=CCCCC1	inactive; none

Compound	outcome
O=C(Oc1cccc(O)c1)c1ccccc1	inactive; none
O=CCCl	inactive; none
CCCCCCCC(=O)OCC(COC(=O)CCCCCCC)OC(=O)CCCCCCC	inactive; none
CCCCS	inactive; none
CC/C=C\CCOC(=O)c1ccccc1O	inactive; incomplete
O=C(Nc1ccccc1)c1cc(Cl)ccc1O	inactive; incomplete
CCCCCCOC(C)=O	inactive; none
CCOC(=O)c1ccccc1C(=O)OCC	inactive; none
N#CCC(=O)O	inactive; none
CC(C)COC(=O)C(C)C	inactive; none
CCOc1ccc(NC(C)=O)cc1	inactive; none
ClCC1OCCO1	inactive; none
CC(C)COC(=O)CC(C(=O)OCC(C)C)S(=O)(=O)O (stereo not drawn)	inactive; none
O=C1OC2(c3ccc(O)cc3Oc3cc(O)ccc32)c2ccccc21	inactive; none
O=C(O)c1cc(O)c2ccccc2c1O	inactive; incomplete
CSc1ccc(C(=O)C(C)(C)N2CCOCC2)cc1	inactive; none
CCCCCCCCCCCCCCBr	inactive; none
CC1=CC(=C(c2ccc(N)cc2)c2ccc(N)cc2)C=CC1=N	inactive; none
CCOP(=S)(OCC)SCn1c(=O)oc2cc(Cl)ccc21	inactive; none
CCOc1ccc2c(c1)C(C)=CC(C)(C)N2	inactive; none
O=C1OS(=O)(=O)c2ccccc21	inactive; none
Cc1cc(C(C)(C)C)c(O)c(C)c1Cn1c(=O)n(Cc2c(C)cc(C(C)(C)C)c(O)c2C)c(=O)n(Cc2c(C)cc(C(C)(C)C)c(O)c2C)c1=O	inactive; none
O=C(O[C@@H](C(=O)O)[C@@H](OC(=O)c1ccccc1)C(=O)O)c1ccccc1	inactive; none

Compound	outcome
CCN(CC)c1ccc(N)c(C)c1	inactive; none
CCO[Si](CCCN=C=O)(OCC)OCC	inactive; none
CCO[Si](C)(CCCN)OCC	inactive; none
CCC(=O)O	inactive; none
CCCCCCOc1ccccc1C(=O)O	inactive; none
O=C1CCC(=O)O1	inactive; none
O=[N+]([O-])c1c(Cl)c(Cl)c(Cl)c(Cl)c1Cl	inactive; none
O=C(O)c1ccccc1COc1ccccc1	inactive; none
CCCCCCCCCCCCCCC(Br)C(=O)O (stereo not drawn)	inactive; incomplete
Oc1ccc(Sc2ccc(O)cc2O)c(O)c1	inactive; incomplete
Nc1ccc(/C=C/c2ccc(N)cc2S(=O)(=O)O)c(S(=O)(=O)O)c1	inactive; none
Cc1cc[cH-]c1.[C-]#[O+].[C-]#[O+].[C-]#[O+].[Mn]	inactive; none
Oc1ccc2ccccc2c1N=Nc1ccccc1	inactive; none
CC(C)N	inactive; none
Cc1cc(Cc2cc(C)cc(C(C)(C)C)c2O)c(O)c(C(C)(C)C)c1	inactive; none
CCCCCCCCCCCCOCCOCCO	inactive; none
N#CCCSCCC#N	inactive; none
CCN(CC)c1ccc(C(=C2C=CC(=[N+](CC)CC)C=C2)c2ccc(N(CC)CC)cc2)cc1	inactive; none
CO[Si](CCCNCCC[Si](OC)(OC)OC)(OC)OC	inactive; none
Nc1ccc(F)c(Cl)c1	inactive; none
CC(C)CCCCCOC(=O)CS	inactive; none
C[Si](O)(O)O	inactive; none
O=C1c2ccccc2C(=O)N1SC1CCCCC1	inactive; none

Compound	outcome
c1c[nH]cn1	inactive; none
CC(O)C(=O)O (stereo not drawn)	inactive; none
CCOC(=O)C(CC)C(=O)OCC	inactive; none
CC(C)(C)[Si](C)(C)Cl	inactive; none
COCCOC(=O)CC#N	inactive; none
O=C1OC2(c3ccc(O)cc3Oc3cc(O)ccc32)c2c(Cl)c(Cl)c(Cl)c(Cl)c21	inactive; none
C=C(C)C(=O)OCCOCC	inactive; none
CC(=O)c1ccc(O)cc1	inactive; none
O=C(O)CC(O)(CC(=O)O)C(=O)O	inactive; none
CCC[CH2][Sn]([CH2]CCC)([CH2]CCC)[O][Sn]([CH2]CCC)([CH2]CCC)[CH2]CCC	inactive; none
Cc1c(C)c2c(c(C)c1O)CC[C@@](C)(CCC[C@H](C)CCC[C@H](C)CCCC(C)C)O2	inactive; none
Cc1cc(O)c(C(C)(C)C)cc1C(C)CC(c1cc(C(C)(C)C)c(O)cc1C)c1cc(C(C)(C)C)c(O)cc1C (stereo not drawn)	inactive; none
OC1CCCCC1	inactive; none
CCCCOC(=O)CCC(C)=O	inactive; none
C=C[Si](C)(C)O[Si](C)(C)C=C	inactive; none
OCCS	inactive; none
O=C(O)c1ccc2cc(O)ccc2c1	inactive; none
CC(C)CC(=O)O	inactive; none
CCCCCCCCCCCCCCCCCCN	inactive; none
CCCCCCCCCCCCCCCCCCCCCCCCO	inactive; none
CC(CO)c1ccccc1 (stereo not drawn)	inactive; incomplete
C(CCOCC1CO1)COCC1CO1 (stereo not drawn)	inactive; none

Same assay, conditions: Rat uterine cytosol ER, 3H-estradiol competitive binding; TestedRange_microM: 2.5-7.5

Compound	Potency [µM]
Oc1ccc(C(c2ccc(O)cc2)(C(F)(F)F)C(F)(F)F)cc1	1.9

Same assay, conditions: Rat uterine cytosol ER, 3H-estradiol competitive binding; TestedRange_microM: 3-30

Compound	Potency [µM]
CC(C)(c1ccccc1)c1ccc(O)cc1	16.5

Same assay, conditions: Rat uterine cytosol ER, 3H-estradiol competitive binding; TestedRange_microM: 10-100

Compound	Potency [µM]
COC(OC)(C(=O)c1ccccc1)c1ccccc1	136
O=C(c1ccccc1)c1ccc(O)c(O)c1O	103

Same assay, conditions: Rat uterine cytosol ER, 3H-estradiol competitive binding; TestedRange_microM: 25-75

Compound	Potency [µM]
CC(C)(c1ccc(O)cc1)c1ccc(O)cc1	24.8

Same assay, conditions: Rat uterine cytosol ER, 3H-estradiol competitive binding; TestedRange_microM: 30-200

Compound	outcome	Potency [µM]
O=C(Nc1ccc(Cl)c(Cl)c1)Nc1cc(Cl)ccc1Oc1ccc(Cl)cc1S(=O)(=O)O	inactive; partial	–
Cc1cc(O)ccc1Cl	–	373
